Reference: ChEMBL document CHEMBL1201862, “PubChem BioAssay data set” (2004)
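These data come from cells grown in 96-well plates and exposed to compound for 48 hours at five concentrations. GI50 marks 50% less growth.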 The source made the active and inactive calls. Rule as the data show it: active = GI50 up to about 1.1 µM and inactive = higher.

Columns and labels:
Experiment in all cases: NCI anticancer screen, dose series, 48 h
A498 = tested on: A498
OVCAR-8 = tested on: OVCAR-8
COLO 205 = tested on: COLO 205
M14 = tested on: M14
TK-10 = tested on: TK-10
Hs-578T = tested on: Hs-578T
CCRF-CEM = tested on: CCRF-CEM
NCI-H460 = tested on: NCI-H460
SN12C = tested on: SN12C
IGROV-1 = tested on: IGROV-1
BT-549 = tested on: BT-549
LOX IMVI = tested on: LOX IMVI
RXF 393 = tested on: RXF 393
HOP-92 = tested on: HOP-92
T47D = tested on: T47D
HOP-62 = tested on: HOP-62
SK-MEL-28 = tested on: SK-MEL-28
HCT-15 = tested on: HCT-15

| Structure (SMILES) | GI50 (A498) | GI50 (OVCAR-8) | GI50 (COLO 205) | GI50 (M14) | GI50 (TK-10) | GI50 (Hs-578T) | GI50 (CCRF-CEM) | GI50 (NCI-H460) | GI50 (SN12C) | GI50 (IGROV-1) | GI50 (BT-549) | GI50 (LOX IMVI) | GI50 (RXF 393) | GI50 (HOP-92) | GI50 (T47D) | GI50 (HOP-62) | GI50 (SK-MEL-28) | GI50 (HCT-15) [µM] |
| --- | --- | --- | --- | --- | --- | --- | --- | --- | --- | --- | --- | --- | --- | --- | --- | --- | --- | --- |
| O=C(Nc1cc2cc([N+](=O)[O-])ccc2oc1=O)c1cccs1 | > 100 µM (inactive) | 34.2 µM (inactive) | 25.2 µM (inactive) | 58.7 µM (inactive) | > 100 µM (inactive) | 30.8 µM (inactive) | 11.3 µM (inactive) | 51.2 µM (inactive) | 40.5 µM (inactive) | 34.4 µM (inactive) | 69.2 µM (inactive) | 20.3 µM (inactive) | 4.86 µM (inactive) | 37.6 µM (inactive) | 38.5 µM (inactive) | 28.8 µM (inactive) | 58.9 µM (inactive) | – |
| NC(=O)N/N=C/c1ccccc1O | > 100 µM (inactive) | > 100 µM (inactive) | > 100 µM (inactive) | > 100 µM (inactive) | > 100 µM (inactive) | 53.6 µM (inactive) | > 100 µM (inactive) | > 100 µM (inactive) | – | > 100 µM (inactive) | > 100 µM (inactive) | > 100 µM (inactive) | > 100 µM (inactive) | > 100 µM (inactive) | > 100 µM (inactive) | > 100 µM (inactive) | > 100 µM (inactive) | > 100 |
| C=CC(C)(C)c1c(OC)oc2ccc(OC)c(C)c2c1=O | > 100 µM (inactive) | > 100 µM (inactive) | > 100 µM (inactive) | > 100 µM (inactive) | > 100 µM (inactive) | > 100 µM (inactive) | > 100 µM (inactive) | > 100 µM (inactive) | > 100 µM (inactive) | > 100 µM (inactive) | 90.2 µM (inactive) | > 100 µM (inactive) | – | – | 56.4 µM (inactive) | > 100 µM (inactive) | > 100 µM (inactive) | 98.2 |
| CC(=O)NC1CONC1=O (stereo not given) | > 100 µM (inactive) | > 100 µM (inactive) | > 100 µM (inactive) | > 100 µM (inactive) | > 100 µM (inactive) | > 100 µM (inactive) | > 100 µM (inactive) | > 100 µM (inactive) | > 100 µM (inactive) | > 100 µM (inactive) | > 100 µM (inactive) | > 100 µM (inactive) | > 100 µM (inactive) | > 100 µM (inactive) | > 100 µM (inactive) | > 100 µM (inactive) | > 100 µM (inactive) | > 100 |
| O=C(c1ccccc1)C1C(c2ccccc2[N+](=O)[O-])N1C1CCCCC1 (stereo not given) | 16.7 µM (inactive) | 1.86 µM (inactive) | 7.26 µM (inactive) | 9.42 µM (inactive) | 2.74 µM (inactive) | 10.3 µM (inactive) | – | 9.2 µM (inactive) | 4.39 µM (inactive) | 4.25 µM (inactive) | 11.6 µM (inactive) | 2.1 µM (inactive) | 4.27 µM (inactive) | 3.5 µM (inactive) | 2.51 µM (inactive) | 15.1 µM (inactive) | > 42.3 µM (inactive) | 3.52 |
| CC1=CC(=O)/C(=C/NC(=S)C(N)=S)C(=O)O1 | – | > 100 µM (inactive) | > 100 µM (inactive) | > 100 µM (inactive) | > 100 µM (inactive) | > 100 µM (inactive) | 44 µM (inactive) | > 100 µM (inactive) | > 100 µM (inactive) | > 100 µM (inactive) | > 100 µM (inactive) | > 100 µM (inactive) | > 100 µM (inactive) | > 100 µM (inactive) | > 100 µM (inactive) | > 100 µM (inactive) | > 100 µM (inactive) | > 100 |
| COc1cc(C(=O)NNC(=O)c2cc(Br)ccc2NC(=O)c2cccs2)cc(OC)c1OC | 19.1 µM (inactive) | 19.1 µM (inactive) | 12.9 µM (inactive) | 19.3 µM (inactive) | 25.3 µM (inactive) | 20.9 µM (inactive) | 18.1 µM (inactive) | 20.2 µM (inactive) | 20 µM (inactive) | 22.6 µM (inactive) | 22.3 µM (inactive) | 15.3 µM (inactive) | 13.1 µM (inactive) | 15.3 µM (inactive) | 19.5 µM (inactive) | 16.3 µM (inactive) | – | 15.5 |
| COCN(CCC1=CCCCC1)C(=O)OC | > 100 µM (inactive) | > 100 µM (inactive) | > 100 µM (inactive) | > 100 µM (inactive) | > 100 µM (inactive) | > 100 µM (inactive) | – | 29.9 µM (inactive) | – | > 100 µM (inactive) | > 100 µM (inactive) | – | > 100 µM (inactive) | > 100 µM (inactive) | 89.1 µM (inactive) | > 100 µM (inactive) | > 100 µM (inactive) | > 100 |
| O=CC1C(=O)Nc2nc3ccccc3n2C1c1ccccc1 (stereo not given) | 14.3 µM (inactive) | 11.7 µM (inactive) | 11.4 µM (inactive) | 16 µM (inactive) | 28.6 µM (inactive) | 31.6 µM (inactive) | 4.38 µM (inactive) | 29.4 µM (inactive) | 5.7 µM (inactive) | 13.9 µM (inactive) | 14.1 µM (inactive) | 11.1 µM (inactive) | 0.183 µM (active) | 12.4 µM (inactive) | < 0.01 µM (active) | 5.06 µM (inactive) | 19.6 µM (inactive) | 15.1 |
| COc1cc2c(cc1OCCCCN1CCN(CCCCOc3cc4c(cc3OC)C(=O)N3CCC[C@H]3C=N4)CC1)N=C[C@@H]1CCCN1C2=O | 0.0543 µM (active) | < 0.0172 µM (active) | 0.0158 µM (active) | 0.02 µM (active) | 0.0589 µM (active) | 0.0608 µM (active) | – | 0.0234 µM (active) | < 0.01 µM (active) | 0.146 µM (active) | 0.0202 µM (active) | – | 0.0676 µM (active) | < 0.01 µM (active) | < 0.0118 µM (active) | 0.0236 µM (active) | 0.0206 µM (active) | 1.14 |
| O=Nc1c(-c2cccc([N+](=O)[O-])c2)nc2cnccn12 | – | 14.5 µM (inactive) | 20 µM (inactive) | 18.7 µM (inactive) | 5.04 µM (inactive) | 31.7 µM (inactive) | 0.14 µM (active) | 33.9 µM (inactive) | 24.4 µM (inactive) | 17.4 µM (inactive) | 27.9 µM (inactive) | 15.2 µM (inactive) | 23 µM (inactive) | 20 µM (inactive) | 15.1 µM (inactive) | 26.6 µM (inactive) | 21.5 µM (inactive) | 14.5 |
| O=C1CC(NCc2ccccc2)c2c(Cl)sc(Cl)c21 (stereo not given) | > 60.3 µM (inactive) | 18 µM (inactive) | 21.6 µM (inactive) | 21.8 µM (inactive) | 31.3 µM (inactive) | 41.8 µM (inactive) | 2.54 µM (inactive) | > 61.4 µM (inactive) | 26 µM (inactive) | 26.1 µM (inactive) | 31 µM (inactive) | 5.05 µM (inactive) | – | 34.8 µM (inactive) | 73.1 µM (inactive) | 29 µM (inactive) | 28.1 µM (inactive) | 20.1 |
| C/C(O)=C/C(=O)c1[nH]c(C(=O)O)cc1C1CCN(Cc2ccccc2)C1=O (stereo not given) | 41.1 µM (inactive) | 19.1 µM (inactive) | 18 µM (inactive) | 15.3 µM (inactive) | 27.9 µM (inactive) | 32.4 µM (inactive) | – | 15.8 µM (inactive) | – | 25.3 µM (inactive) | 22.6 µM (inactive) | – | 12 µM (inactive) | 20.8 µM (inactive) | 15.7 µM (inactive) | 15.8 µM (inactive) | 23.2 µM (inactive) | 11 |
| O=c1n(CCO)nc2n1CCCN2 | – | > 100 µM (inactive) | > 100 µM (inactive) | > 100 µM (inactive) | > 100 µM (inactive) | > 100 µM (inactive) | > 100 µM (inactive) | > 100 µM (inactive) | > 100 µM (inactive) | > 100 µM (inactive) | > 100 µM (inactive) | > 100 µM (inactive) | > 100 µM (inactive) | > 100 µM (inactive) | > 100 µM (inactive) | > 100 µM (inactive) | > 100 µM (inactive) | > 100 |
| Cn1cnc([N+](=O)[O-])c1[Se]c1ncnc2nc[nH]c12 | 3.59 µM (inactive) | 8.79 µM (inactive) | 15.1 µM (inactive) | 5.47 µM (inactive) | 1.91 µM (inactive) | 3.7 µM (inactive) | 9.51 µM (inactive) | 22.1 µM (inactive) | 11.7 µM (inactive) | 3.38 µM (inactive) | 14.6 µM (inactive) | 0.497 µM (active) | 15.5 µM (inactive) | 12.2 µM (inactive) | 15.2 µM (inactive) | 12 µM (inactive) | 3.79 µM (inactive) | 15.6 |
| COc1cc2c(c(OC)c1OC)-c1ccc(SC)c(=O)cc1[C@@H](OC(C)=O)CC2 | – | < 0.01 µM (active) | < 0.01 µM (active) | < 0.01 µM (active) | 21.8 µM (inactive) | < 0.01 µM (active) | < 0.01 µM (active) | < 0.01 µM (active) | < 0.01 µM (active) | < 0.01 µM (active) | < 0.01 µM (active) | < 0.01 µM (active) | 0.885 µM (active) | > 100 µM (inactive) | > 100 µM (inactive) | < 0.01 µM (active) | < 0.01 µM (active) | < 0.01 |
| C/C(=N\Nc1nc2ccccc2o1)c1cc2ccccc2cn1 | 15 µM (inactive) | < 0.01 µM (active) | < 0.01 µM (active) | < 0.01 µM (active) | – | 0.237 µM (active) | < 0.01 µM (active) | 0.0311 µM (active) | < 0.01 µM (active) | < 0.01 µM (active) | 0.173 µM (active) | – | 0.946 µM (active) | < 0.0208 µM (active) | < 0.01 µM (active) | 0.14 µM (active) | 0.364 µM (active) | < 0.01 |
